{"source": "patent US5770699A", "about": "“Process for production of inhibited forms of activated blood factors” (COR Therapeutics, Inc., priority 1996, dated 1998)", "origin": "cited, not measured here", "biological_target": "Factor Xa", "conditions": "transient (reversible) inhibition of Factor Xa; stated as known; cited from earlier work"}
{"smiles": "N=C(N)c1ccc2oc(CCc3cc4cc(C(=N)N)ccc4o3)cc2c1", "note": "[1,2-bis(5-amidino 2-benzofuranyl) ethane]", "values": [{"measurement": "Ki", "value": 570, "unit": "nM"}]}
